Test results taken from ChEMBL document CHEMBL1268945, “Sequential cytotoxicity: a theory examined using a series of 3,5-bis(benzylidene)-1-diethylphosphono-4-oxopiperidines and related phosphonic acids” (Bioorg Med Chem Lett, 2010).
Calls of active or inactive are those of the source. No cut-off for these calls is given here.

Legend:
[1] = system: HSC-4; test: Cytotoxicity against human HSC4 cells; format: functional
[2] = system: HL-60; test: Cytotoxicity against human HL60 cells; format: functional
[3] = Cytotoxicity against human HPLF cells; format: cell-based
[4] = system: HL-60; test: Selectivity index, ratio of CC50 for normal cells to CC50 for human HL60 cells; format: functional
[5] = system: HSC-4; test: Selectivity index, ratio of CC50 for normal cells to CC50 for human HSC4 cells; format: functional
[6] = system: HSC-2; test: Cytotoxicity against human HSC2 cells; format: functional
[7] = Cytotoxicity against human HGF cells; format: cell-based
[8] = Cytotoxicity against human HPC cells; format: cell-based
[9] = system: HSC-3; test: Selectivity index, ratio of CC50 for normal cells to CC50 for human HSC3 cells; format: functional
[10] = system: HSC-2; test: Selectivity index, ratio of CC50 for normal cells to CC50 for human HSC2 cells; format: functional
[11] = system: HSC-3; test: Cytotoxicity against human HSC3 cells; format: functional
[12] = system: HSC-4; test: Induction of internucleosomal DNA fragmentation in human HSC4 cells after 6 hrs; format: functional, cell-based
[13] = system: HL-60; test: Induction of internucleosomal DNA fragmentation in human HL60 cells after 6 hrs; format: functional, cell-based
[14] = system: HSC-2; test: Induction of apoptosis in human HSC2 cells assessed as activation of caspase 3 after 6 hrs; format: functional, cell-based
[15] = system: HSC-2; test: Induction of internucleosomal DNA fragmentation in human HSC2 cells after 6 hrs; format: functional, cell-based
[16] = system: HL-60; test: Induction of apoptosis in human HL60 cells assessed as activation of caspase 3 after 6 hrs; format: functional, cell-based

Row | Structure (SMILES) | CC50 [1] | CC50 [2] | CC50 [3] | Selectivity Index [4] | Selectivity Index [5] | CC50 [6] | CC50 [7] | CC50 [8] | Selectivity Index [9] | Selectivity Index [10] | CC50 [11] | Activity [12] | Activity [13] | Activity [14] | Activity [15] | Activity [16]
1 | CCOP(=O)(OCC)N1C/C(=C\c2ccc(Cl)cc2)C(=O)/C(=C/c2ccc(Cl)cc2)C1 | 640 nM | 600 nM | 4.8 µM | 6.7 | 6.3 | 1500 nM | 4.3 µM | 2800 nM | 2 | 2.7 | 2000 nM |  |  |  |  | 
2 | CCOP(=O)(OCC)N1C/C(=C\c2cc(OC)c(OC)c(OC)c2)C(=O)/C(=C/c2cc(OC)c(OC)c(OC)c2)C1 | 160 nM | 290 nM | 2.2 µM | 6.2 | 11 | 330 nM | 2 µM | 1300 nM | 4.2 | 5.5 | 430 nM |  |  |  |  | 
3 | CCOP(=O)(OCC)N1C/C(=C\c2ccccc2[N+](=O)[O-])C(=O)/C(=C/c2ccccc2[N+](=O)[O-])C1 | 1800 nM | 380 nM | 15 µM | 37 | 7.8 | 1600 nM | 18 µM | 8300 nM | 12 | 8.8 | 1200 nM |  |  |  |  | 
4 | N[C@@H](Cc1ccc(N(CCCl)CCCl)cc1)C(=O)O [MELPHALAN] | 32000 nM | 1400 nM | 199 µM | 150 | 6.6 | 8700 nM | 161 µM | 269000 nM | 8.4 | 24 | 25000 nM |  |  |  |  | 
5 | O=C1/C(=C/c2ccc(Cl)cc2)CN(P(=O)(O)O)C/C1=C\c1ccc(Cl)cc1 | 720 nM | 460 nM | 5.1 µM | 9.8 | 6.3 | 420 nM | 5.9 µM | 2600 nM | 11 | 11 | 410 nM |  |  |  |  | 
6 | CCOP(=O)(OCC)N1C/C(=C\c2ccccc2)C(=O)/C(=C/c2ccccc2)C1 | 1100 nM | 610 nM | 10 µM | 15 | 8.4 | 2400 nM | 11 µM | 6500 nM | 3.7 | 3.8 | 2500 nM |  |  |  |  | 
7 | O=C1/C(=C/c2ccc([N+](=O)[O-])cc2)CN(P(=O)(O)O)C/C1=C\c1ccc([N+](=O)[O-])cc1 | 130 nM | 140 nM | 3.4 µM | 21 | 23 | 180 nM | 4.1 µM | 1600 nM | 13 | 17 | 230 nM |  |  |  |  | 
8 | O=C1/C(=C/c2ccccc2[N+](=O)[O-])CN(P(=O)(O)O)C/C1=C\c1ccccc1[N+](=O)[O-] | 100 nM | 70 nM | 3 µM | 30 | 22 | 170 nM | 1.4 µM | 2100 nM | 6.9 | 13 | 320 nM |  |  |  |  | 
9 | CCOP(=O)(OCC)N1C/C(=C\c2ccc(C)cc2)C(=O)/C(=C/c2ccc(C)cc2)C1 | 4600 nM | 3300 nM | 21 µM | 6.7 | 4.8 | 4900 nM | 28 µM | 18000 nM | 5.4 | 4.5 | 4100 nM |  |  |  |  | 
10 | Cc1ccc(/C=C2\CN(P(=O)(O)O)C/C(=C\c3ccc(C)cc3)C2=O)cc1 | 960 nM | 1100 nM | 6.1 µM | 4.6 | 5.3 | 760 nM | 5.9 µM | 3300 nM | 5.4 | 6.7 | 950 nM |  |  |  |  | 
11 | O=C1/C(=C/c2cccc([N+](=O)[O-])c2)CN(P(=O)(O)O)C/C1=C\c1cccc([N+](=O)[O-])c1 | 140 nM | 90 nM | 3.3 µM | 30 | 19 | 200 nM | 2.3 µM | 2200 nM | 14 | 13 | 180 nM |  |  |  |  | 
12 | O=C1/C(=C/c2ccccc2)CN(P(=O)(O)O)C/C1=C\c1ccccc1 | 570 nM | 460 nM | 7 µM | 12 | 10 | 770 nM | 6.9 µM | 3200 nM | 5.8 | 7.4 | 980 nM |  |  |  |  | 
13 | CCOP(=O)(OCC)N1C/C(=C\c2cccc([N+](=O)[O-])c2)C(=O)/C(=C/c2cccc([N+](=O)[O-])c2)C1 | 260 nM | 50 nM | 3.9 µM | 54 | 9.6 | 760 nM | 2.2 µM | 1500 nM | 3.4 | 3.3 | 740 nM |  |  |  |  | 
14 | CCOP(=O)(OCC)N1C/C(=C\c2ccc(OC)c(OC)c2)C(=O)/C(=C/c2ccc(OC)c(OC)c2)C1 | 500 nM | 750 nM | 5.3 µM | 8.4 | 13 | 1700 nM | 7.4 µM | 6200 nM | 4.5 | 3.7 | 1400 nM |  |  |  |  | 
15 | CCOP(=O)(OCC)N1C/C(=C\c2ccc([N+](=O)[O-])cc2)C(=O)/C(=C/c2ccc([N+](=O)[O-])cc2)C1 | 720 nM | 140 nM | 2.2 µM | 17 | 3.3 | 330 nM | 3.1 µM | 1900 nM | 6.3 | 7.3 | 380 nM |  |  |  |  | 
16 | CCOP(=O)(OCC)N1C/C(=C\c2ccc(OC)cc2)C(=O)/C(=C/c2ccc(OC)cc2)C1 | 1300 nM | 1900 nM | 46 µM | 25 | 36 | 920 nM | 53 µM | 41000 nM | 71 | 51 | 660 nM | inactive | Active | inactive | inactive | Dose-dependent effect
17 | COc1ccc(/C=C2\CN(P(=O)(O)O)C/C(=C\c3ccc(OC)c(OC)c3)C2=O)cc1OC | 420 nM | 260 nM | 2.5 µM | 8.1 | 5 | 400 nM | 2.6 µM | 1300 nM | 3.6 | 5.3 | 590 nM |  |  |  |  | 
18 | COc1ccc(/C=C2\CN(P(=O)(O)O)C/C(=C\c3ccc(OC)cc3)C2=O)cc1 | 3900 nM | 5600 nM | 44 µM | 12 | 17 | 1700 nM | 107 µM | 54000 nM | 31 | 40 | 2200 nM |  |  |  |  | 
19 | COc1cc(/C=C2\CN(P(=O)(O)O)C/C(=C\c3cc(OC)c(OC)c(OC)c3)C2=O)cc(OC)c1OC | 120 nM | 60 nM | 1 µM | 12 | 6.7 | 130 nM | 0.88 µM | 590 nM | 3 | 6.2 | 270 nM |  |  |  |  | 
